Measurements reported in patent US4374846A, “N-Amino alkyl indole compounds compositions containing same, and a method of using same in therapy of disorders of gastrointestinal motility” (Kali-Chemie Pharma GmbH, priority 1979, dated 1983).
Like-named read-outs stand apart in the source and are kept apart here.

Assays:
[1] = Determination of the acute toxicity (seven-day, single intraperitoneal dose); conditions: in vivo, ip, white NMRI mouse, fasting, single i.p. dose, probit analysis
Description: The acute seven-day toxicity is determined by intraperitoneal administration of a single dose of the respective compound to a fasting white NMRI mouse. The LD50 -values are calculated via EDV by a probit analysis as described in the book "Grundbegriffe der Biometrie" (Basic biometrical definitions) by L. Cavalli-Sforza, page 153 et seq., published by Gustav Fischer Verlag, Stuttgart, 1964.

[2] = system: stomach (gastric peristalsis); assay: Testing of the gastric peristalsis (measurements of the gastric pressure); type: in vivo, rats; conditions: for inhibition in vivo at 20 mg/kg: Rattus norvegicus, ip, read-out: Frequency decrease in %
Description: To determine the functioning of the gastric peristalsis, rats weighing about 200 g. are narcotized by means of ketamine hydrochloride and xylazine. A catheter is introduced into the Vena jugularis of the narcotized rats and a tracheal catheter into their trachea. A stomach probe is inserted into their stomach and tied thereto. Said probe is connected via a three-way cock with a Statham pressure imparting device (P 23 DB). The stomach is sealed off by a ligature at the pylorus and at the cardia. The stomach is filled with 3 ml. of an 0.9% aqueous sodium chloride solution. The pressure waves produced by the stomach are continuously registered by a suitable recording device such as by a Watanabe Multicorder (MC 641). In order to determine the effect of the compounds to be tested, they are dissolved in physiological sodium chloride solution or are suspended in Tylose MH 50 solution. Said solutions or suspensions are administered intraperitoneally to the rats in a dosis of 20 mg./kg. The amplitudes and frequencies of the pressure wave-like movements of the stomach as they occur before and after administration of the compound to be tested, are compared.

[3] = gastric pressure waves, narcotized rats, 20 mg./kg. intraperitoneally, before vs after administration

Structure (SMILES): COC(=O)c1c(OCc2ccccc2)c2cc(Cl)ccc2n1CCN(C)C.Cc1ccc(S(=O)(=O)O)cc1 [(E), 1-(β-dimethylaminoethyl)-2-methoxy carbonyl-3-benzyloxy-5-chloroindole toluene-4-sulfonate]
- LD50 at 168 h [1]: 283 mg/kg
- inhibition in vivo at 20 mg/kg [2]: -2%
- Factor of the increase in amplitude [2, 3]: 0.6

Structure (SMILES): COC(=O)c1c(OC)c2ccccc2n1CCCCN(C)C.Cc1ccc(S(=O)(=O)O)cc1 [(H), 1-(δ-dimethylaminobutyl)-2-methoxy carbonyl-3-methoxy indole toluene-4-sulfonate]
- LD50 at 168 h [1]: 164 mg/kg
- inhibition in vivo at 20 mg/kg [2]: 11%
- Factor of the increase in amplitude [2, 3]: 3.5

Structure (SMILES): COC(=O)c1c(OC)c2ccc(C)cc2n1CCN(C)C.Cl [(B), 1-(β-dimethylaminoethyl)-2-methoxy carbonyl-3-methoxy-6-methyl indole hydrochloride]
- LD50 at 168 h [1]: 68 mg/kg
- inhibition in vivo at 20 mg/kg [2, 3]: 7%
- Factor of the increase in amplitude [2, 3]: 22.7

Structure (SMILES): COc1c(C(=O)O)n(CCN(C)C)c2ccccc12 [(K), 1-(β-dimethylaminoethyl)-2-hydroxy carbonyl-3-methoxy indole]
- LD50 at 168 h [1]: 967 mg/kg
- inhibition in vivo at 20 mg/kg [2, 3]: 21%
- Factor of the increase in amplitude [2, 3]: 3.6

Structure (SMILES): COc1c(C(N)=O)n(CCN(C)C)c2ccccc12 [(L), 1-(β-dimethylaminoethyl)-2-amino carbonyl-3-methoxy indole]
- LD50 at 168 h [1]: 68 mg/kg
- inhibition in vivo at 20 mg/kg [2, 3]: 28%
- Factor of the increase in amplitude [2, 3]: 13.9

Structure (SMILES): COC(=O)c1c(OC)c2ccccc2n1CCCN1CCCCC1 [(I), 1-(γ-N-piperidinopropyl)-2-methoxy carbonyl-3-methoxy indole maleinate]
- LD50 at 168 h [1]: 141 mg/kg
- inhibition in vivo at 20 mg/kg [2, 3]: 15%
- Factor of the increase in amplitude [2, 3]: 8.6

Structure (SMILES): COC(=O)c1c(OC)c2ccccc2n1CCCNC(C)C.Cl [(G), 1-(γ-isopropylaminopropyl)-2-methoxy carbonyl-3-methoxy indole hydrochloride]
- LD50 at 168 h [1]: 91 mg/kg
- inhibition in vivo at 20 mg/kg [2, 3]: 29%
- Factor of the increase in amplitude [2, 3]: 8.3

Structure (SMILES): CNC(=O)c1c(OC)c2ccccc2n1CCN(C)C [(M), 1-(β-dimethylaminoethyl)-2-methylamino carbonyl-3-methoxy indole]
- LD50 at 168 h [1]: 68 mg/kg
- inhibition in vivo at 20 mg/kg [2, 3]: 13%
- Factor of the increase in amplitude [2, 3]: 21.4

Structure (SMILES): CCOc1c(C(=O)OC)n(CCN(C)C)c2ccc(Cl)cc12.Cl [(C), 1-(β-dimethylaminoethyl)-2-methoxy carbonyl-3-ethoxy-5-chloro indole hydrochloride]
- LD50 at 168 h [1]: 141 mg/kg
- inhibition in vivo at 20 mg/kg [2, 3]: 9%
- Factor of the increase in amplitude [2, 3]: 1.4

Structure (SMILES): COC(=O)c1c(OC(C)C)c2cc(C)ccc2n1CCN(C)C.Cl [(D), 1-(β-dimethylaminoethyl)-2-methoxy carbonyl-3-isopropyloxy-5-methyl indole hydrochloride]
- LD50 at 168 h [1]: 137 mg/kg
- inhibition in vivo at 20 mg/kg [2, 3]: 19%
- Factor of the increase in amplitude [2, 3]: 6.9

Structure (SMILES): CCOC(=O)c1c(OCC)c2ccc(Cl)cc2n1CCN(C)C.Cc1ccc(S(=O)(=O)O)cc1 [(F), 1-(β-dimethylaminoethyl)-2-ethoxy carbonyl-3-ethoxy-6-chloro indole toluene-4-sulfonate]
- LD50 at 168 h [1]: 226 mg/kg
- inhibition in vivo at 20 mg/kg [2]: 5%
- Factor of the increase in amplitude [2, 3]: 10.9

Structure (SMILES): COC(=O)c1c(OC)c2ccccc2n1CCN(C)C.Cl [(A), 1-(β-Dimethylaminoethyl)-2-methoxy carbonyl-3-methoxy-indole hydrochloride]
- LD50 at 168 h [1]: 171 mg/kg
- inhibition in vivo at 20 mg/kg [2, 3]: 3.3%
- Factor of the increase in amplitude [2, 3]: 6.2
